Results published in patent US7144893B2, “4-aryl quinols and analogs thereof as therapeutic agents” (Cancer Research Technology Limited, priority 2001, dated 2006).
≈ marks a conversion by molar mass, not a printed value.

Legend:
[1] = system: 60 human cancer cell lines; experiment: cells; format: cell-based; conditions: Homo sapiens; for CC50: 60 cell, 48 h, read-out: mean LC50; for GI50: mean over NCI 60 cell panel, 48 h drug exposure
Protocol: (§1) Compounds were tested for in vitro activity (48 h drug exposure) across 60 human cancer cell lines through the National Cancer Institute (NCI) Developmental Therapies Screening Program (Boyd et al., 1995).

colon sub-panel = experiment: cells; format: cell-based; conditions: Homo sapiens, SW-620, read-out: mean LC50 in colon sub-panel
Protocol: as §1

renal sub-panel = experiment: cells; format: cell-based; conditions: Homo sapiens, 60 cell, read-out: mean LC50 in renal sub-panel
Protocol: as §1

A549 lung adenocarcinoma = experiment: Growth inhibitory assay (MTT, 72 hr); format: cell-based; conditions: Homo sapiens, 72 hr exposure
Protocol: (§2) Compounds were prepared as 10 mM top stocks, dissolved in DMSO, and stored at 4° C., protected from light, for a maximum period of 4 weeks. Human derived cell lines (HCT 116, HT29 colon carcinoma; MCF-7 (ER+), MDA 468 (ER−) breast carcinoma; A549 lung adenocarcinoma) were routinely cultivated at 37° C. in an atmosphere of 5% CO2 in RPMI 1640 medium supplemented with 2 mM L-glutamine and 10% fetal calf serum and subcultured twice weekly to maintain continuous logarithmic growth. Cells were seeded into 96-well microtiter plates at a density of 5×10^3 per well and allowed 24 hr to adhere before drugs were introduced (final concentration 0.1 nM–100 μM, n=8). Serial drug dilutions were prepared in medium immediately prior to each assay. At the time of drug addition and following 72 hr exposure, MTT was added to each well (final concentration 400 µg/mL). Incubation at 37° C. for 4 hr allowed reduction of MTT by mitochondrial dehydrogenase to an insoluble formazan product. Well contents were aspirated and formazan solubilized by addition of DMSO:glycine buffer (pH 10.5) (4:1). Absorbance was measured using an Anthos Labtec systems plate reader at 550 nm, and used as a measure of cell viability; thus cell growth or drug toxicity was determined.

HCT 116 colon carcinoma = experiment: Growth inhibitory assay (MTT, 72 hr); format: cell-based; conditions: Homo sapiens, 72 hr exposure
Protocol: as §2

HT29 colon carcinoma = experiment: Growth inhibitory assay (MTT, 72 hr); format: cell-based; conditions: Homo sapiens, HT-29, 72 hr exposure
Protocol: as §2

[2] = system: Mycobacterium tuberculosis H37Rv (ATCC 27294); experiment: Microplate Alamar Blue Assay (MABA), TAACF primary screening; format: cell-based; conditions: lowest concentration effecting a reduction in fluorescence of 90% relative to controls
Description: Compounds were submitted to the Tuberculosis Antimicrobial Acquisition and Coordinating Facility (TAACF) for testing as antimycobacterial drugs.
Compounds were subjected to in vitro evaluation for antimycobacterial activity.
See, for example, Collins et al., 1997.

[3] = system: MCF-7 (ER+) breast carcinoma; experiment: Growth inhibitory assay (MTT, 72 hr); format: cell-based; conditions: Homo sapiens, MCF7, 72 hr exposure
Protocol: as §2

[4] = system: MDA 468 (ER−) breast carcinoma; experiment: Growth inhibitory assay (MTT, 72 hr); format: cell-based; conditions: Homo sapiens, 72 hr exposure
Protocol: as §2

[5] = bovine, serum; cited from earlier work
thioredoxin = thioredoxin (Homo sapiens, UniProt P10599); conditions: irreversible inhibitor of thioredoxin; cited from earlier work
Sequence of thioredoxin (P10599 whole entry): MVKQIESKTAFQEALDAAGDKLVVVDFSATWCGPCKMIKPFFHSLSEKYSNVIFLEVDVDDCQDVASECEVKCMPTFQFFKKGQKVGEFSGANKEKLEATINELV

Structure (SMILES) | CC50 [1] [nM] | GI50 [1] [nM] | LC50 (colon sub-panel) [nM] | mean LC50 (renal sub-panel) [nM] | IC50 (A549 lung adenocarcinoma) [nM] | IC50 (HCT 116 colon carcinoma) [nM] | IC50 (HT29 colon carcinoma) [nM] | MIC [2] [µg/mL] | melting point [°C] | IC50 [3] [nM] | IC50 [4] [nM] | half-life [5] [min] | Ki (thioredoxin) [nM]
O=C1C=CC(O)(c2cc3ccccc3o2)C=C1 [Q01, 4-(Benzofuran-2-yl)-4-hydroxy-2,5-cyclohexadien-1-one] | 7240 | 520 | 3660 | 2400 | 2300 | 159 | 419 | 1.56 (≈ 6.9 µM) |  |  |  |  | 
O=C1C=CC(O)(c2cc3ccccc3[nH]2)C=C1 [Q03, 4-(Indol-2-yl)-4-hydroxy-2,5-cyclohexadien-1-one] |  | 1410 |  |  | 6130 | 2840 | 1760 | 3.13 (≈ 13.9 µM) | 133 |  |  |  | 
O=C1C=CC(O)(c2nc3ccccc3o2)C=C1 [Q04, 4-(Benzoxazol-2-yl)-4-hydroxy-2,5-cyclohexadien-1-one] | 7080 | 460 | 1130 | 1640 | 2330 | 180 | 290 | 1.56 (≈ 6.87 µM) |  | 390 | 350 |  | 
O=CN/C=C/c1cc(O)ccc1O [erbstatin] |  |  |  |  |  |  |  |  |  |  |  | < 30 | 
CN(C)CC1CCC(CN(C)C)C1=O (centres unmarked) [NSC-131233, 2,5-bis[(dimethylamino)methyl]cyclopentanone] |  |  |  |  |  |  |  |  |  |  |  |  | 1000
